Results taken from the supplement of paper PMC10307832.

Legend:
Experiment in all cases: relative viability (nuclei count vs DMSO), 5 days (fraction); higher = more cells survive
Motesanib + Lapatinib = compound: CC1(C)CNc2cc(NC(=O)c3cccnc3NCc3ccncc3)ccc21 [Motesanib] + CS(=O)(=O)CCNCc1ccc(-c2ccc3ncnc(Nc4ccc(OCc5cccc(F)c5)c(Cl)c4)c3c2)o1 [Lapatinib] (partner 2 µM)
Outline: (§1)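 Cells from lung cancer lines were seeded into 1536-well plates and, one day later, dosed by pin tool. Treatments were either a single drug or a fixed dose of an anchor drug with five library-drug doses (not always all listed) in √10 steps. After 5 days, nuclei were stained in a one-step fixation (final 0.05% Triton X-100, 1% formaldehyde, 1 ug/ml Hoechst) and counted on 4× images, and relative viability is the treated-to-vehicle nuclei ratio, as the median of duplicate plates.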

Motesanib + Dasatinib = compound: CC1(C)CNc2cc(NC(=O)c3cccnc3NCc3ccncc3)ccc21 [Motesanib] + Cc1nc(Nc2ncc(C(=O)Nc3c(C)cccc3Cl)s2)cc(N2CCN(CCO)CC2)n1 [Dasatinib] (partner 0.075 µM)
Outline: as §1

[1] = compound: C[C@@]1(C(=O)Nc2ccc(F)nc2)CCCN1c1nc(Nc2cc(C3CC3)n[nH]2)c2cccn2n1 + C[C@@H](Oc1cc(-c2cnn(C3CCNCC3)c2)cnc1N)c1c(Cl)ccc(F)c1Cl [Crizotinib] (partner 1 µM)
Outline: as §1

[2] = compound: C[C@@]1(C(=O)Nc2ccc(F)nc2)CCCN1c1nc(Nc2cc(C3CC3)n[nH]2)c2cccn2n1 + O=C(c1cc(Cc2n[nH]c(=O)c3ccccc23)ccc1F)N1CCN(C(=O)C2CC2)CC1 [Olaparib] (partner 8 µM)
Outline: as §1

Cell Line: LU99A
- relative viability (Motesanib + Lapatinib; first compound 0.01 µM): 1.03
- relative viability (Motesanib + Lapatinib; first compound 0.03162 µM): 1.2
- relative viability (Motesanib + Lapatinib; first compound 0.1 µM): 0.94
- relative viability (Motesanib + Lapatinib; first compound 0.3162 µM): 1.03
- relative viability (Motesanib + Lapatinib; first compound 1 µM): 0.883
- relative viability (Motesanib + Dasatinib; first compound 0.01 µM): 0.636
- relative viability (Motesanib + Dasatinib; first compound 0.03162 µM): 0.453
- relative viability (Motesanib + Dasatinib; first compound 0.1 µM): 0.681
- relative viability (Motesanib + Dasatinib; first compound 0.3162 µM): 0.606
- relative viability (Motesanib + Dasatinib; first compound 1 µM): 0.524
- relative viability ([1]; first compound 0.04 µM): 0.391
- relative viability ([1]; first compound 0.1265 µM): 0.415
- relative viability ([1]; first compound 0.4 µM): 0.39
- relative viability ([1]; first compound 1.265 µM): 0.233
- relative viability ([2]; first compound 0.04 µM): 0.292
- relative viability ([2]; first compound 0.1265 µM): 0.227
- relative viability ([2]; first compound 0.4 µM): 0.231
- relative viability ([2]; first compound 1.265 µM): 0.276

Cell Line: LXF-289
- relative viability (Motesanib + Lapatinib; first compound 0.01 µM): 0.893
- relative viability (Motesanib + Lapatinib; first compound 0.03162 µM): 0.867
- relative viability (Motesanib + Lapatinib; first compound 0.1 µM): 0.909
- relative viability (Motesanib + Lapatinib; first compound 0.3162 µM): 1
- relative viability (Motesanib + Lapatinib; first compound 1 µM): 0.949
- relative viability (Motesanib + Dasatinib; first compound 0.01 µM): 0.258
- relative viability (Motesanib + Dasatinib; first compound 0.03162 µM): 0.148
- relative viability (Motesanib + Dasatinib; first compound 0.1 µM): 0.257
- relative viability (Motesanib + Dasatinib; first compound 0.3162 µM): 0.256
- relative viability (Motesanib + Dasatinib; first compound 1 µM): 0.267
- relative viability ([1]; first compound 0.04 µM): 0.837
- relative viability ([1]; first compound 0.1265 µM): 0.806
- relative viability ([1]; first compound 0.4 µM): 0.751
- relative viability ([1]; first compound 1.265 µM): 0.714
- relative viability ([2]; first compound 0.04 µM): 1.07
- relative viability ([2]; first compound 0.1265 µM): 1.1
- relative viability ([2]; first compound 0.4 µM): 0.933
- relative viability ([2]; first compound 1.265 µM): 1.07

Cell Line: NCI-H23
- relative viability (Motesanib + Lapatinib; first compound 0.01 µM): 1.14
- relative viability (Motesanib + Lapatinib; first compound 0.03162 µM): 0.864
- relative viability (Motesanib + Lapatinib; first compound 0.3162 µM): 1.13
- relative viability (Motesanib + Lapatinib; first compound 1 µM): 1.11
- relative viability (Motesanib + Dasatinib; first compound 0.01 µM): 0.881
- relative viability (Motesanib + Dasatinib; first compound 0.03162 µM): 0.737
- relative viability (Motesanib + Dasatinib; first compound 0.1 µM): 0.662
- relative viability (Motesanib + Dasatinib; first compound 0.3162 µM): 0.892
- relative viability (Motesanib + Dasatinib; first compound 1 µM): 0.746
- relative viability ([1]; first compound 0.04 µM): 0.49
- relative viability ([1]; first compound 0.1265 µM): 0.292
- relative viability ([1]; first compound 0.4 µM): 0.2
- relative viability ([1]; first compound 1.265 µM): 0.35
- relative viability ([2]; first compound 0.04 µM): 0.252
- relative viability ([2]; first compound 0.1265 µM): 0.227
- relative viability ([2]; first compound 0.4 µM): 0.225
- relative viability ([2]; first compound 1.265 µM): 0.21

Cell Line: NCI-H441
- relative viability (Motesanib + Dasatinib; first compound 0.01 µM): 0.594
- relative viability (Motesanib + Dasatinib; first compound 0.03162 µM): 0.627
- relative viability (Motesanib + Dasatinib; first compound 0.1 µM): 0.604
- relative viability (Motesanib + Dasatinib; first compound 0.3162 µM): 0.613
- relative viability (Motesanib + Dasatinib; first compound 1 µM): 0.642
- relative viability ([1]; first compound 0.04 µM): 0.603
- relative viability ([1]; first compound 0.1265 µM): 0.704
- relative viability ([1]; first compound 0.4 µM): 0.553
- relative viability ([1]; first compound 1.265 µM): 0.527
- relative viability ([2]; first compound 0.04 µM): 0.373
- relative viability ([2]; first compound 0.1265 µM): 0.368
- relative viability ([2]; first compound 0.4 µM): 0.345
- relative viability ([2]; first compound 1.265 µM): 0.332

Cell Line: NCI-H522
- relative viability (Motesanib + Dasatinib; first compound 0.01 µM): 0.754
- relative viability (Motesanib + Dasatinib; first compound 0.03162 µM): 0.835
- relative viability (Motesanib + Dasatinib; first compound 0.1 µM): 0.921
- relative viability (Motesanib + Dasatinib; first compound 0.3162 µM): 0.862
- relative viability (Motesanib + Dasatinib; first compound 1 µM): 0.864
- relative viability ([2]; first compound 0.04 µM): 0.66
- relative viability ([2]; first compound 0.1265 µM): 0.588
- relative viability ([2]; first compound 0.4 µM): 0.615
- relative viability ([2]; first compound 1.265 µM): 0.596

Cell Line: NCI-H1299
- relative viability (Motesanib + Lapatinib; first compound 0.01 µM): 0.958
- relative viability (Motesanib + Lapatinib; first compound 0.03162 µM): 0.979
- relative viability (Motesanib + Lapatinib; first compound 0.1 µM): 0.995
- relative viability (Motesanib + Lapatinib; first compound 0.3162 µM): 1.01
- relative viability (Motesanib + Lapatinib; first compound 1 µM): 0.935
- relative viability ([1]; first compound 0.04 µM): 0.963
- relative viability ([1]; first compound 0.1265 µM): 0.956
- relative viability ([1]; first compound 0.4 µM): 0.97
- relative viability ([1]; first compound 1.265 µM): 0.96
- relative viability ([2]; first compound 0.04 µM): 0.976
- relative viability ([2]; first compound 0.1265 µM): 0.97
- relative viability ([2]; first compound 0.4 µM): 0.887
- relative viability ([2]; first compound 1.265 µM): 0.964

Cell Line: NCI-H1395
- relative viability (Motesanib + Lapatinib; first compound 0.01 µM): 0.925
- relative viability (Motesanib + Lapatinib; first compound 0.03162 µM): 1.03
- relative viability (Motesanib + Lapatinib; first compound 0.1 µM): 1.04
- relative viability (Motesanib + Lapatinib; first compound 0.3162 µM): 1.08
- relative viability (Motesanib + Lapatinib; first compound 1 µM): 0.959
- relative viability (Motesanib + Dasatinib; first compound 0.01 µM): 0.425
- relative viability (Motesanib + Dasatinib; first compound 0.03162 µM): 0.476
- relative viability (Motesanib + Dasatinib; first compound 0.1 µM): 0.42
- relative viability (Motesanib + Dasatinib; first compound 0.3162 µM): 0.443
- relative viability (Motesanib + Dasatinib; first compound 1 µM): 0.417
- relative viability ([2]; first compound 0.04 µM): 0.505
- relative viability ([2]; first compound 0.1265 µM): 0.437
- relative viability ([2]; first compound 0.4 µM): 0.408
- relative viability ([2]; first compound 1.265 µM): 0.497

Cell Line: NCI-H1563
- relative viability (Motesanib + Lapatinib; first compound 0.01 µM): 0.9
- relative viability (Motesanib + Lapatinib; first compound 0.03162 µM): 0.991
- relative viability (Motesanib + Lapatinib; first compound 0.1 µM): 1.08
- relative viability (Motesanib + Lapatinib; first compound 0.3162 µM): 0.923
- relative viability (Motesanib + Lapatinib; first compound 1 µM): 0.951
- relative viability (Motesanib + Dasatinib; first compound 0.01 µM): 0.424
- relative viability (Motesanib + Dasatinib; first compound 0.03162 µM): 0.44
- relative viability (Motesanib + Dasatinib; first compound 0.1 µM): 0.447
- relative viability (Motesanib + Dasatinib; first compound 0.3162 µM): 0.473
- relative viability (Motesanib + Dasatinib; first compound 1 µM): 0.421
- relative viability ([1]; first compound 0.04 µM): 0.829
- relative viability ([1]; first compound 0.1265 µM): 0.91
- relative viability ([1]; first compound 0.4 µM): 0.947
- relative viability ([1]; first compound 1.265 µM): 0.828

Cell Line: NCI-H1648
- relative viability ([2]; first compound 0.04 µM): 0.446
- relative viability ([2]; first compound 0.1265 µM): 0.746
- relative viability ([2]; first compound 0.4 µM): 0.422
- relative viability ([2]; first compound 1.265 µM): 0.7

Cell Line: NCI-H1703
- relative viability (Motesanib + Lapatinib; first compound 0.01 µM): 1.05
- relative viability (Motesanib + Lapatinib; first compound 0.03162 µM): 0.679
- relative viability (Motesanib + Lapatinib; first compound 0.1 µM): 0.526
- relative viability (Motesanib + Lapatinib; first compound 0.3162 µM): 0.334
- relative viability (Motesanib + Lapatinib; first compound 1 µM): 0.323
- relative viability ([1]; first compound 0.04 µM): 0.586
- relative viability ([1]; first compound 0.1265 µM): 0.535
- relative viability ([1]; first compound 0.4 µM): 0.792
- relative viability ([2]; first compound 0.04 µM): 0.402
- relative viability ([2]; first compound 0.1265 µM): 0.428
- relative viability ([2]; first compound 0.4 µM): 0.421
- relative viability ([2]; first compound 1.265 µM): 0.357

Cell Line: NCI-H1793
- relative viability (Motesanib + Lapatinib; first compound 0.01 µM): 0.858
- relative viability (Motesanib + Lapatinib; first compound 0.03162 µM): 0.636
- relative viability (Motesanib + Lapatinib; first compound 0.1 µM): 0.64
- relative viability (Motesanib + Lapatinib; first compound 0.3162 µM): 0.701
- relative viability (Motesanib + Lapatinib; first compound 1 µM): 0.773
- relative viability (Motesanib + Dasatinib; first compound 0.01 µM): 0.393
- relative viability (Motesanib + Dasatinib; first compound 0.03162 µM): 0.388
- relative viability (Motesanib + Dasatinib; first compound 0.1 µM): 0.376
- relative viability (Motesanib + Dasatinib; first compound 0.3162 µM): 0.416
- relative viability (Motesanib + Dasatinib; first compound 1 µM): 0.405
- relative viability ([2]; first compound 0.04 µM): 0.751
- relative viability ([2]; first compound 0.1265 µM): 0.668
- relative viability ([2]; first compound 0.4 µM): 0.475
- relative viability ([2]; first compound 1.265 µM): 0.772

Cell Line: NCI-H2342
- relative viability (Motesanib + Dasatinib; first compound 0.01 µM): 0.271
- relative viability (Motesanib + Dasatinib; first compound 0.03162 µM): 0.312
- relative viability (Motesanib + Dasatinib; first compound 0.1 µM): 0.336
- relative viability (Motesanib + Dasatinib; first compound 0.3162 µM): 0.279
- relative viability (Motesanib + Dasatinib; first compound 1 µM): 0.317
- relative viability ([2]; first compound 0.04 µM): 0.438
- relative viability ([2]; first compound 0.1265 µM): 0.449
- relative viability ([2]; first compound 0.4 µM): 0.336
- relative viability ([2]; first compound 1.265 µM): 0.329

Cell Line: SW 900
- relative viability (Motesanib + Dasatinib; first compound 0.01 µM): 0.545
- relative viability (Motesanib + Dasatinib; first compound 0.03162 µM): 0.714
- relative viability (Motesanib + Dasatinib; first compound 0.1 µM): 0.858
- relative viability (Motesanib + Dasatinib; first compound 0.3162 µM): 0.611
- relative viability (Motesanib + Dasatinib; first compound 1 µM): 0.461
- relative viability ([2]; first compound 0.04 µM): 1.02
- relative viability ([2]; first compound 0.1265 µM): 0.895
- relative viability ([2]; first compound 0.4 µM): 0.721
- relative viability ([2]; first compound 1.265 µM): 0.717
